From patent publication US11318157B2, “6-6 bicyclic aromatic ring substituted nucleoside analogues for use as PRMT5 inhibitors” (Janssen Pharmaceutica NV, priority 2015, dated 2022)
Like-named read-outs stand apart in the source and are kept apart here.

Assays:
[1] = tested on: nuclear symmetric Arginine dimethylation in A549 cells; assay: PD assay (assay 2): inhibition of nuclear symmetric Arginine dimethylation (SYM10 immunohistochemistry), 48 h; format: cell-based; details: Homo sapiens
How it was run: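 Cells seeded at 400/well overnight, then treated 48 h at 37 °C, final DMSO 0.2%. Fixed and stained with SYM10 antibody plus Alexa 488 secondary, Hoechst and CellMask, then imaged on Opera. Normalized to DMSO (high) and 10 μM reference compound (low); averaged pIC50 reported.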

[2] = target: T1, PRMT5-MEP50 enzyme (Homo sapiens, UniProt O14744); assay: In vitro assay 1a: high throughput mass spectrometer assay of SAH formation, 10 nM enzyme, 60 min; format: biochemical; details: averaged values, PRMT5-MEP50, 10 nM enzyme, read-out: pIC50 Assay 1a (converted)
T1 construct: One virus expresses full length human PRMT5 with Flag-tag at N-terminus; Flag (N); purchased Charles River (Argenta); host or cells: insect cells (Sf9), baculovirus co-infection
Text: Experimental Procedures In Vitro Assay (Assay 1a and 1b)
PRMT5-MEP50 enzyme was purchased from Charles River (Argenta). The enzyme complex was produced in insect cells (Sf9) infected simultaneously with two baculoviruses. One virus expresses full length human PRMT5 with Flag-tag at N-terminus, the second virus expresses full length MEP50 with His6-TEV cleavage at N-terminus. The protein was affinity purified using anti-Flag (M2) beads eluted with 3×FLAG peptide, followed by His-Select eluted with 0.5M imidazole. Eluted protein was then dialysed against tris-buffered saline (TBS) (pH 8.0) containing 20% glycerol and 3 mM dithiothreitol (DTT).
Full-length untagged human recombinant histone H2A (residues 1-130, Genbank Accession #NM_021052 MW=14.1 kDa) expressed in E. coli was purchased from Reaction Biology Corporation, Cat #HMT-11-146. Reagents used for making reaction buffer or stopping reaction were purchased including Tris base (Sigma Cat #T-1503), NaCl (Sigma Cat #RGF-3270), MgCl2 (Sigma Cat #M0250), DTTI (Invitrogen Cat #15508-013) and Formic Acid (Riedel deHaen, Cat #33015)
High Throughput Mass Spectrometer Assay
PRMT5 catalyzes the sequential methylations of the terminal nitrogen atoms on the guanidine groups of arginine residues within proteins using co-substrate S-adenosyl-L-methionine (AdoMet, SAM), forming mono-methyl (MMA), symmetric-dimethyl arginine (sDMA) and S-adenosyl-L-homocysteine (AdoHcy, SAH). The enzyme activity was determined by following the product SAH formation using high throughput mass spectrometry (Agilent Rapidfire 300 System coupled to a Sciex 4000 series QTrap® triple-quad MS/MS). The reaction buffer was 20 mM Tris-HCl, pH 8.5, 50 mM NaCl, 5 mM MgCl2 and 1 mM DTT. The reaction activity was stopped using 1% formic acid (final concentration).
The IC50 Studies were performed using eleven point dosing series made for each compound by serially diluted 1:2 in dimethyl sulfoxide (DMSO), with point 12 being a DMSO control. Compounds were first spotted to plates, and followed by addition of 2 μM SAM and 0.6 μM H2A (histone H2A) solution mixture. The same volume of enzyme solution was added to initiate the enzymatic reactions. The final concentrations of the reaction are at 1 μM SAM, 0.3 μM H2A and 10 nM enzyme (assay 1a) or 1.25 nM enzyme (assay 1b). The reaction was incubated at 30° C. for 60 minutes (min) when 10 nM enzyme was used and for 120 min when 1.25 nM enzyme was used. Subsequently, the reaction was quenched by addition of formic acid to a final concentration of 1%. The inhibitions of SAH formation in the presence of compounds were calculated as a percentage of the control relative to the uninhibited reaction as a function of inhibitor concentration. The data were fit as follows: Y=Bottom+(Top−Bottom)/(1+10^((log IC50−X)*h))
where IC50 is the inhibitor concentration (same unit as X) at 50% inhibition and h is the Hill slope. Y is percent of inhibition, X is log of compound concentration. Bottom and Top are the plateaus in same units as Y.

[3] = target: T1, PRMT5-MEP50 enzyme; assay: In vitro assay 1b: high throughput mass spectrometer assay of SAH formation, 1.25 nM enzyme, 120 min; format: biochemical; details: averaged values; PRMT5-MEP50, 1.25 nM enzyme, 120 min; read-out: pIC50 Assay 1b (converted)
How it was run: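 Flag-PRMT5/His-MEP50 complex from Sf9 cells, with 1 μM SAM and 0.3 μM full-length histone H2A in pH 8.5 Tris buffer, at 30 °C; 10 nM enzyme for 60 min (1a) or 1.25 nM for 120 min (1b). Formic acid-quenched SAH read by RapidFire MS/MS; 11-point IC50 with Hill fit.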

[4] = A549, averaged values, PD assay, A549 cells, symmetric Arginine dimethylation, read-out: pIC50 Assay 2 (converted)
[5] = A549, read-out: pIC50 Assay 2 (converted)

T1 sequence (O14744 whole entry): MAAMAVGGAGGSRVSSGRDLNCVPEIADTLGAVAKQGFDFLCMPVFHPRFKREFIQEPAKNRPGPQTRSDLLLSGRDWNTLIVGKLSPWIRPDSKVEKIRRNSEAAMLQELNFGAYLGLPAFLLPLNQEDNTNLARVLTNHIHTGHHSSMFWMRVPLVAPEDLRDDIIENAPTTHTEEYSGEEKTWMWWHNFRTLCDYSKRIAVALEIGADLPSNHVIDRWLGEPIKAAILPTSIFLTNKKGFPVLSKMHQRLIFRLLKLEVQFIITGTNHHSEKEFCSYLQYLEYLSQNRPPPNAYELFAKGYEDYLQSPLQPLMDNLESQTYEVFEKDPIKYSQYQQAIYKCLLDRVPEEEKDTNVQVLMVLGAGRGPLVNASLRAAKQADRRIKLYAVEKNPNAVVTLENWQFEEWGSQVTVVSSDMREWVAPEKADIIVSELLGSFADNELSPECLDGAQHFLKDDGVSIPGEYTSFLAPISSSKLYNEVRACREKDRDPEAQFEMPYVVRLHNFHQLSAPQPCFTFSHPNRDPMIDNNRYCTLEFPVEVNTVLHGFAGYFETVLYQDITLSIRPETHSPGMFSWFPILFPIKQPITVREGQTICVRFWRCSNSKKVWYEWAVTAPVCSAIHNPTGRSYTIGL
T1 sequence (Q9BQA1 whole entry partner): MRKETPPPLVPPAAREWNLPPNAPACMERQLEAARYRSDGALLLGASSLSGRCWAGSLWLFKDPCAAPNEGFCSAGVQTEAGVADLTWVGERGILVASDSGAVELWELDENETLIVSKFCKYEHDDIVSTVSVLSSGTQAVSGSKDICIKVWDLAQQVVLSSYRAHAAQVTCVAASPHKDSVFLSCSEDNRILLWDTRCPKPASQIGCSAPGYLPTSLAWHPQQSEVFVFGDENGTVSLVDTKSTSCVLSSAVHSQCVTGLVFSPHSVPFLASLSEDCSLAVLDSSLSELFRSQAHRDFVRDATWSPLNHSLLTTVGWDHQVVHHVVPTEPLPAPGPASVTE

Row | SMILES | IC50 [1, 4] [nM] | IC50 [2] [nM] | IC50 [3] [nM] | IC50 [1, 5] [nM]
1 | O[C@@H]1[C@H](O)[C@@H](COc2ccc3ccc(NCc4ccc(Cl)cc4)nc3c2)O[C@H]1n1ccc2c(Cl)ncnc21 [Compound 131] | ~66.1 | 7.94 | 63.1 | 
2 | Nc1ncnc2c1ccn2[C@@H]1O[C@H](/C=C/c2ccc3cc(Cl)cnc3c2)[C@@H](O)[C@H]1O [Compound 57a] | 63.1 | 31.6 | 50.1 | 
3 | Nc1ncnc2c1ccn2[C@@H]1O[C@H](COc2ccc3cc(C4CCCC4)cnc3c2)[C@@H](O)[C@H]1O [Compound 109] | 1000 | 126 | 200 | 
4 | CN(C)c1ccc2ccc(OC[C@H]3O[C@@H](n4ccc5c(N)ncnc54)[C@H](O)[C@@H]3O)cc2n1 [Compound 23] |  | 501 | 316 | 398
5 | Nc1ncnc2c1ccn2[C@@H]1O[C@H](COc2ccc3cc(C4CC4)cnc3c2)[C@@H](O)[C@H]1O [Compound 84] | 200 | 15.8 | 79.4 | 
6 | Cc1nc(N)c2ccn([C@@H]3O[C@H](CNc4ccc5cc(Br)cnc5c4)[C@@H](O)[C@H]3O)c2n1 [Compound 53] | 50.1 | 39.8 | 50.1 | 
7 | Nc1ncnc2c1ccn2[C@@H]1O[C@H](COc2ccc3ccnnc3c2)[C@@H](O)[C@H]1O [Compound 69] | > 20000 | 631 | 3160 | 
8 | Nc1ncnc2c1ccn2[C@@H]1O[C@H](COc2ccc3cc(Cl)cnc3c2)[C@@H](O)[C@H]1O [Compound 25] | 126 | 12.6 | 39.8 | 
9 | Nc1ncnc2c1ccn2[C@@H]1O[C@H](COc2cc3ncccc3cc2I)[C@@H](O)[C@H]1O [Compound 3] | 631 | 39.8 | 158 | 
10 | COc1ccnc2cc(OC[C@H]3O[C@@H](n4ccc5c(N)ncnc54)[C@H](O)[C@@H]3O)ccc12 [Compound 104] | > 10000 | 5010 | 15800 | 
11 | CC(C)Cc1cnc2cc(OC[C@H]3O[C@@H](n4ccc5c(N)ncnc54)[C@H](O)[C@@H]3O)ccc2c1 [Compound 112] | 398 | 50.1 | 200 | 
12 | Nc1ncnc2c1ccn2[C@@H]1O[C@H](COc2ccc3cc(C(F)(F)F)cnc3c2)[C@@H](O)[C@H]1O [Compound 27] | ~1150 | 398 | 794 | 
13 | Nc1ncnc2c1ccn2[C@@H]1C[C@H](CCc2ccc3ccc(NCC(F)F)nc3c2)[C@@H](O)[C@H]1O [Compound 75] | 1.58 | 0.251 | 0.501 | 
14 | Nc1nc(Cl)nc2c1ccn2[C@@H]1O[C@H](COc2ccc3cc(Br)cnc3c2)[C@@H](O)[C@H]1O [Compound 42] | 316 | 50.1 | 126 | 
15 | Cc1cc2c(N)ncnc2n1[C@@H]1O[C@H](COc2ccc3cccnc3c2)[C@@H](O)[C@H]1O [Compound 83] | 200 | 39.8 | 126 | 
16 | Nc1ncnc2c1ccn2[C@@H]1O[C@H](COc2ccc3cccnc3c2Cl)[C@@H](O)[C@H]1O [Compound 41] | > 10000 | 6310 | 10000 | 
17 | Nc1ncnc2c1ccn2[C@@H]1C[C@H](CCc2ccc3ccc(NCc4ccc(Cl)cc4)nc3c2)[C@@H](O)[C@H]1O [Compound 124] | 0.631 | 2 | 5.01 | 
18 | Nc1ncnc2c1ccn2[C@@H]1C[C@H](CCc2ccc3cc(Br)cnc3c2)[C@@H](O)[C@H]1O [Compound 129] |  | 2.51 | 15.8 | 12.6
19 | O[C@@H]1[C@@H](CCc2ccc3ccc(NCc4ccc(Cl)cc4)nc3c2)C[C@@H](n2ccc3c(Cl)ncnc32)[C@@H]1O [Compound 114] | 12.6 | 15.8 | 25.1 | 
20 | CN(C[C@H]1O[C@@H](n2ccc3c(N)ncnc32)[C@H](O)[C@@H]1O)c1ccc2cc(Br)cnc2c1 [Compound 52] | 398 | 63.1 | 158 | 
21 | Nc1ncnc2c1ccn2[C@@H]1O[C@H](CNc2ccc3cc(Cl)cnc3c2)[C@@H](O)[C@H]1O [Compound 50] | 25.1 | 10 | 7.94 | 
22 | Nc1ncnc2c1ccn2[C@@H]1O[C@H](COc2ccc3cc(F)cnc3c2)[C@@H](O)[C@H]1O [Compound 24] | 794 | 39.8 | 126 | 
23 | Nc1ncnc2c1ccn2[C@@H]1O[C@H](COc2cc3ncc(Cl)cc3cc2Cl)[C@@H](O)[C@H]1O [Compound 100] | 794 | 126 | 200 | 

Continued, in another order:

Row | IC50 [1, 4] [nM] | IC50 [2] [nM] | IC50 [3] [nM] | SMILES | IC50 [1, 5] [nM]
24 | 251 | 316 | 1000 | CNC(=O)c1cnc2cc(OC[C@H]3O[C@@H](n4ccc5c(N)ncnc54)[C@H](O)[C@@H]3O)ccc2c1 [Compound 189] | 
25 | 39.8 | 5.01 | 20 | Cc1cnc2cc(OC[C@H]3O[C@@H](n4ccc5c(N)ncnc54)[C@H](O)[C@@H]3O)ccc2c1 [Compound 217] | 
26 | 501 | 7.94 | 50.1 | CNc1ccc2ccc(OC[C@H]3O[C@@H](n4ccc5c(Cl)ncnc54)[C@H](O)[C@@H]3O)cc2n1 [Compound 136] | 
27 | 10 | 1 | 7.94 | Nc1ncc2ccc(CC[C@H]3C[C@@H](n4ccc5c(N)ncnc54)[C@H](O)[C@@H]3O)cc2n1 [Compound 216] | 
28 | 398 | 31.6 | 100 | CC(C)c1cnc2cc(OC[C@H]3O[C@@H](n4ccc5c(N)ncnc54)[C@H](O)[C@@H]3O)ccc2c1 [Compound 214] | 
29 | 79.4 | 2 | 15.8 | CNc1ncnc2c1ccn2[C@@H]1O[C@H](COc2ccc3ccc(N)nc3c2)[C@@H](O)[C@H]1O [Compound 186] | 
30 | 1260 | 200 | 631 | COc1ncnc2c1ccn2[C@@H]1O[C@H](CCc2ccc3ccc(NCC4CC4)nc3c2)[C@@H](O)[C@H]1O [Compound 191] | 
31 | 50.1 | 3.16 | 25.1 | Cc1ncnc2c1ccn2[C@@H]1O[C@H](COc2ccc3ccc(NCc4ccc(Cl)cc4)nc3c2)[C@@H](O)[C@H]1O [Compound 205] | 
32 | 126 | 10 | 50.1 | CNc1ccc2ccc(OC[C@H]3O[C@@H](n4ccc5cncnc54)[C@H](O)[C@@H]3O)cc2n1 [Compound 174] | 
33 | 3.16 | 0.794 | 5.01 | Nc1ccc2ccc(CC[C@H]3O[C@@H](n4ccc5cncnc54)[C@H](O)[C@@H]3O)cc2n1 [Compound 167] | 
34 | 2.51 | 0.794 | 2.51 | Nc1ncnc2c1ccn2[C@@H]1O[C@H](COc2ccc3ccc(NCc4ccc(Cl)cc4)nc3c2)[C@@H](O)[C@H]1O [Compound 132] | 
35 | 2510 | 316 | 501 | Nc1ncnc2c1ncn2[C@@H]1O[C@H](COc2ccc3cc(Br)cnc3c2)[C@@H](O)[C@H]1O [Compound 220] | 
36 | ~174 | 31.6 | 63.1 | Nc1ncnc2c1ccn2[C@@H]1C[C@H](COc2ccc3cc(Cl)cnc3c2)[C@@H](O)[C@H]1O [Compound 222] | 
